Literature values as cited in US20030013692A1, “Methods of treating neurological disorders” (priority 2001, published 2003).

Settings: nimodipine treated subarachnoid hemorrhage (SAH) patients

concentration detected in the cerebrospinal fluid: ≤ 12.5 ng/mL
Structure (SMILES): COCCOC(=O)C1=C(C)NC(C)=C(C(=O)OC(C)C)C1c1cccc([N+](=O)[O-])c1 (stereo not shown) [nimodipine, Isopropyl (2-methoxyethyl) 1,4-dihydro-2,6-dimethyl-4-(3-nitrophenyl)-3,5-pyridine-dicarboxylate]
